Values after ≈ are worked out from the molar mass of the structure shown. Starred links: 1 amine or outer side, 2 acyl side, 3 side chain; linkers in the order of their positions; H or OH if unused. Non-standard residues stand in square brackets, D forms with d. Residues, ends and D or L forms follow the SMILES beside them. X1 = CC(Cc1ccccc1)C(N[*:1])C(=O)[*:2]; X2 = CC(C)C(N[*:1])C(C)C(=O)[*:2]; dNMeV = CN[C@@H](C(=O)O)C(C)C; dHiv = CC(C)[C@@H](O)C(=O)O; Lac = C[C@H](O)C(=O)O
How the values were obtained:
Format in all cases: cell-based
SK-MEL-5 = assay: NCI human cancer cell line minipanel, melanoma SK-MEL-5
Excerpt: (§1) The administration of Dolastatin 16 is useful for treating neoplastic disease associated with malignant cell growth, and expectedly its synthetic counterpart, as well as, its pharmaceutically and physiologically active derivatives will be useful for treating neoplastic disease associated with malignant cell growth in animals and humans. For example, Dolastatin 16 was screened against a minipanel of the U.S. National Cancer Institute's human cancer cell lines utilizing protocols described by Michael R. Boyd and Kenneth D. Paul in Some Practical Considerations and Applications of the National Cancer Institute In Vitro Anticancer Drug Discovery Screen, 34 DRUG D[…] 91 (1995) (and references cited therein).

[1] = test system: complete panel of sixty human cancer cell lines; assay: NCI complete panel of sixty human cancer cell lines
Excerpt: as §1

NCI-H460 = assay: NCI human cancer cell line minipanel, lung NCI-H460
Excerpt: as §1
as §1, with “17” for “16”, “91 (1995) (and references cited therein).” left out

SF-295 = assay: NCI human cancer cell line minipanel, brain SF-295
Excerpt: as §1
as §1, with “17” for “16”, “91 (1995) (and references cited therein).” left out

KM 20L2 = assay: NCI human cancer cell line minipanel, colon KM 20L2
Excerpt: as §1
as §1, with “17” for “16”, “91 (1995) (and references cited therein).” left out

[2] = test system: five human leukemia cell lines; assay: NCI screen, five human leukemia cell lines; details: in words
Excerpt: as §1

[3] = test system: a selection of human cancer cell lines, including lung cancer; assay: NCI minipanel, selection of human cancer cell lines; details: in words
Excerpt: as §1, with “18” for “16”

Row | SMILES | GI50 (SK-MEL-5) [ng/mL] | GI50 [1] [nM] | GI50 (NCI-H460; lung NCI-H460) [ng/mL] | GI50 (SF-295) [ng/mL] | GI50 (KM 20L2) [ng/mL] | growth inhibition [2] | ED50 (NCI-H460; lung cancer NCI-H460) [ng/mL] | growth inhibition [3]
1 | CC(C)C1NC(=O)[C@@H]2CCCN2C(=O)C(C(C)Cc2ccccc2)NC(=O)[C@@H]2CCCN2C(=O)[C@@H](C(C)C)N(C)C(=O)[C@@H](C(C)C)OC(=O)[C@@H]2CCCN2C(=O)[C@H](C)OC(=O)C1C (some centres unmarked) [Dolastatin 16, cyclo-(Pro^1 --Dpv^2 --Pro^3 --Dml^4 --O--Lac^5 --Pro^6 --O--Hiv^7 --MeVal^8)] (cyclo([Lac]P[dHiv][dNMeV]P[X1]P[X2])) | 3.3 (≈ 3.75 nM) | 250 | 0.96 (≈ 1.09 nM) | 5.2 (≈ 5.92 nM) | 1.2 (≈ 1.37 nM) | comparable inhibitory results | – | –
2 | CCCC(=O)C(C)(C)C(=O)N[C@@H](CC(C)C)C(=O)N(C)[C@H](Cc1ccccc1)C(=O)N[C@@H](Cc1ccccc1)c1nccs1 [Dolastatin 18, Dhex--Leu--MePhe--Doe] | – | – | – | – | – | – | 390 (≈ 630 nM) | significantly inhibit growth

From US6239104A, “Isolation and structural elucidation of the cytostatic linear and cyclo-depsipeptides dolastatin 16, dolastatin 17, and dolastatin 18” (priority 1999, dated 2001)
